Experimental data: the supplement of paper PMC11208160

Test: recombinant barcode read abundance after kanamycin selection (control-corrected) (log10(CPM+1)); higher = more efficient recombination; sequences stand for … in AGTGCAGAGAAAATCGGCCAGTTTTCTCTGCCTGCAGTCCGCATGCCGT…AGATTTATGCAGCGGACTGCCTTTCTCCCAAAGTGATAAACCGGACAGTATCATGGACCGGTTTTCCCGGTAATCCGTATTTGCAAGGTTGGTTTCACT; site = the 11-nt target
Procedure, shortened: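 Recombination efficiency in this pooled E. coli screen uses counts per million of barcodes at recombinant junctions, averaged and corrected against the control. The reported form is log10(CPM+1). Two replicates were plated on chloramphenicol/ampicillin LB agar as control and two on chloramphenicol/ampicillin/kanamycin with 0.1 mM IPTG.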
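Also: IS621 recombinase and bridge RNA in Escherichia coli cells.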

Sequence | recombinant barcode read abundance (log10)
GGGGCGACTTGGGTTCTAACCTGTTGCCT (site GGGGCGGCTAG) | 0.13
GGGGCGACTTGGGTTCTAACCTGTTGCCT (site GGGGCGTCTAG) | 0.0176
GGGGCTTCTTGGGTTCTAACCTGTTGCAT (site GGGACTTCTAT) | 0.158
GGGGCTTCTTGGGTTCTAACCTGTTGCAT (site GGGCCTTCTAT) | 0.0416
GGGGCTTCTTGGGTTCTAACCTGTTGCAT (site GGGGCTTCTAT) | 2.07
GGGGCTTCTTGGGTTCTAACCTGTTGCAT (site GGGTCTTCTAT) | 0.27
GGGGTTCCTTGGGTTCTAACCTGTTGCCT (site GGGGTTCCTAA) | 0.223
GGGGTTCCTTGGGTTCTAACCTGTTGCCT (site GGGGTTCCTAC) | 1.56
GGGGTTCCTTGGGTTCTAACCTGTTGCCT (site GGGGTTCCTAG) | 2.3
GGGGTTCCTTGGGTTCTAACCTGTTGCCT (site GGGGTTCCTAT) | 1.42
GGGGTTCCTTGGGTTCTAACCTGTTGCGT (site GGGGTTCCTAA) | 0.321
GGGGTTCCTTGGGTTCTAACCTGTTGCGT (site GGGGTTCCTAC) | 3.32
GGGGTTCCTTGGGTTCTAACCTGTTGCGT (site GGGGTTCCTAG) | 1.35
GGGGTTCCTTGGGTTCTAACCTGTTGCGT (site GGGGTTCCTAT) | 1.85
GGGGTTCCTTGGGTTCTAACCTGTTGCTT (site GGGGTTCCTAA) | 1.52
GGGGTTCCTTGGGTTCTAACCTGTTGCTT (site GGGGTTCCTAC) | 1.89
GGGGTTCCTTGGGTTCTAACCTGTTGCTT (site GGGGTTCCTAG) | 1.36
GGGGTTCCTTGGGTTCTAACCTGTTGCTT (site GGGGTTCCTAT) | 1.17
GGGTAATCTTGGGTTCTAACCTGTTGCCT (site GGGTAAACTAG) | 0.27
GGGTAATCTTGGGTTCTAACCTGTTGCCT (site GGGTAATCTAG) | 0.725
GGGTCCACTTGGGTTCTAACCTGTTGCCT (site GGGTCCACTAA) | 0.481
GGGTCCACTTGGGTTCTAACCTGTTGCCT (site GGGTCCACTAC) | 0.287

Sequence | recombinant barcode read abundance (log10)
GGGTCCACTTGGGTTCTAACCTGTTGCCT (site GGGTCCACTAG) | 2.5
GGGTCCACTTGGGTTCTAACCTGTTGCCT (site GGGTCCACTAT) | 0.358
GGGTCCACTTGGGTTCTAACCTGTTGCTT (site GGGTCCACTAA) | 1.51
GGGTCCACTTGGGTTCTAACCTGTTGCTT (site GGGTCCACTAC) | 0.139
GGGTCCACTTGGGTTCTAACCTGTTGCTT (site GGGTCCACTAG) | 1.11
GGGTCCACTTGGGTTCTAACCTGTTGCTT (site GGGTCCACTAT) | 0.714
GGGTTCCCTTGGGTTCTAACCTGTTGCCT (site GGGTTCCCTAG) | 2.11
GGGTTCCCTTGGGTTCTAACCTGTTGCCT (site GGGTTCGCTAG) | 0.031
GGGTTCGCTTGGGTTCTAACCTGTTGCCT (site GGGTTCCCTAG) | 0.362
GGGTTCGCTTGGGTTCTAACCTGTTGCCT (site GGGTTCGCTAG) | 1.93
GGTAAGTCTTGGGTTCTAACCTGTTGCCT (site GGTAAATCTAG) | 0.3
GGTAAGTCTTGGGTTCTAACCTGTTGCCT (site GGTAAGTCTAG) | 0.298
GGTACGACTTGGGTTCTAACCTGTTGCAG (site GGTACGACTCT) | 1.04
GGTACGACTTGGGTTCTAACCTGTTGCAG (site GGTACGCCTAT) | 0.336
GGTACGCCTTGGGTTCTAACCTGTTGCGT (site GGTACGCCTAC) | 0.248
GGTACGCCTTGGGTTCTAACCTGTTGCGT (site GGTACTCCTAC) | 0.213
GGTACTACTTGGGTTCTAACCTGTTGCCA (site ACTACTACTTG) | 0.0797
GGTACTACTTGGGTTCTAACCTGTTGCCA (site GGTACTACTTG) | 0.152
GGTACTTCTTGGGTTCTAACCTGTTGCTT (site CACCACCCTCC) | 0.157
GGTACTTCTTGGGTTCTAACCTGTTGCTT (site GGTACTTCTAA) | 0.152
GGTAGGCCTTGGGTTCTAACCTGTTGCTT (site GGTAGATCTAA) | 0.0963
GGTAGGCCTTGGGTTCTAACCTGTTGCTT (site GGTAGGCCTAA) | 0.0588

Sequence | recombinant barcode read abundance (log10)
GGTATAGCTTGGGTTCTAACCTGTTGCCT (site GGTAAAGCTAG) | 0.14
GGTATAGCTTGGGTTCTAACCTGTTGCCT (site GGTATAGCTAG) | 0.827
GGTCACCCTTGGGTTCTAACCTGTTGCGG (site GGTAACCCTCC) | 0.0652
GGTCACCCTTGGGTTCTAACCTGTTGCGG (site GGTCACCCTCC) | 1.75
GGTCACCCTTGGGTTCTAACCTGTTGCGG (site GGTGACCCTCC) | 0.0199
GGTCACCCTTGGGTTCTAACCTGTTGCGG (site GGTTACCCTCC) | 0.16
GGTCATCCTTGGGTTCTAACCTGTTGCCT (site GGTCATACTAG) | 0.127
GGTCATCCTTGGGTTCTAACCTGTTGCCT (site GGTCATCCTAG) | 1.17
GGTCATCCTTGGGTTCTAACCTGTTGCCT (site GGTCATGCTAG) | 0.0238
GGTCATCCTTGGGTTCTAACCTGTTGCCT (site GGTCATTCTAG) | 0.0693
GGTCCAACTTGGGTTCTAACCTGTTGCCT (site GGTCAAACTAG) | 0.1
GGTCCAACTTGGGTTCTAACCTGTTGCCT (site GGTCCAACTAG) | 0.32
GGTCCAACTTGGGTTCTAACCTGTTGCCT (site GGTCGAACTAG) | 0.0176
GGTCCAACTTGGGTTCTAACCTGTTGCCT (site GGTCTAACTAG) | 0.159
GGTCCATCTTGGGTTCTAACCTGTTGCCT (site GATCCATCTAG) | 0
GGTCCATCTTGGGTTCTAACCTGTTGCCT (site GCTCCATCTAG) | 0.0427
GGTCCATCTTGGGTTCTAACCTGTTGCCT (site GGTCCATCTAG) | 0.161
GGTCCATCTTGGGTTCTAACCTGTTGCCT (site GTTCCATCTAG) | 0.165
GGTCCGGCTTGGGTTCTAACCTGTTGCGG (site GATCCGTCTCC) | 0.0623
GGTCCGGCTTGGGTTCTAACCTGTTGCGG (site GGTCCGGCTCC) | 1.61
GGTCCTGCTTGGGTTCTAACCTGTTGCCT (site AGTCCTGCTAG) | 0.366
GGTCCTGCTTGGGTTCTAACCTGTTGCCT (site CGTCCTGCTAG) | 0.0632

Sequence | recombinant barcode read abundance (log10)
GGTCCTGCTTGGGTTCTAACCTGTTGCCT (site GGTCCTGCTAG) | 0.976
GGTCCTGCTTGGGTTCTAACCTGTTGCCT (site TGTCCTGCTAG) | 0.174
GGTCGACCTTGGGTTCTAACCTGTTGCCT (site AGTCGACCTAG) | 0.0754
GGTCGACCTTGGGTTCTAACCTGTTGCCT (site CGTCGACCTAG) | 0.0694
GGTCGACCTTGGGTTCTAACCTGTTGCCT (site GGTCGACCTAG) | 0.898
GGTCGACCTTGGGTTCTAACCTGTTGCCT (site TGTCGACCTAG) | 0.175
GGTCGCCCTTGGGTTCTAACCTGTTGCGT (site GGTCGCCCTAC) | 1.43
GGTCGCCCTTGGGTTCTAACCTGTTGCGT (site TCGTAGACTTA) | 0.0116
GGTCGGGCTTGGGTTCTAACCTGTTGCCT (site GGTCGAGCTAG) | 0.132
GGTCGGGCTTGGGTTCTAACCTGTTGCCT (site GGTCGCGCTAG) | 0.315
GGTCGGGCTTGGGTTCTAACCTGTTGCCT (site GGTCGGGCTAG) | 0.401
GGTCGGGCTTGGGTTCTAACCTGTTGCCT (site GGTCGTGCTAG) | 0.0723
GGTGGGTCTTGGGTTCTAACCTGTTGCGT (site GGTGGGTCTAA) | 0.97
GGTGGGTCTTGGGTTCTAACCTGTTGCGT (site GGTGGGTCTAC) | 3.03
GGTGGGTCTTGGGTTCTAACCTGTTGCGT (site GGTGGGTCTAG) | 1.1
GGTGGGTCTTGGGTTCTAACCTGTTGCGT (site GGTGGGTCTAT) | 1.93
GGTTACACTTGGGTTCTAACCTGTTGCCT (site GGATACACTAG) | 0.0395
GGTTACACTTGGGTTCTAACCTGTTGCCT (site GGTTACACTAG) | 1.26
GGTTGTTCTTGGGTTCTAACCTGTTGCCT (site GGTTGTTCTAG) | 0.19
GGTTGTTCTTGGGTTCTAACCTGTTGCCT (site TGTTGTTCTAG) | 0.0976
